Tests used:
[1] = target: T1, NPY Y2 receptor (Homo sapiens, UniProt P49146); test: Neuropeptide Y2 pKB assay (FLIPR, KAN-Ts cells stably expressing chimeric G proteins); format: cell-based; conditions: apparent pKB, modified Cheng-Prusoff correction
T1 sequence (P49146 1-381): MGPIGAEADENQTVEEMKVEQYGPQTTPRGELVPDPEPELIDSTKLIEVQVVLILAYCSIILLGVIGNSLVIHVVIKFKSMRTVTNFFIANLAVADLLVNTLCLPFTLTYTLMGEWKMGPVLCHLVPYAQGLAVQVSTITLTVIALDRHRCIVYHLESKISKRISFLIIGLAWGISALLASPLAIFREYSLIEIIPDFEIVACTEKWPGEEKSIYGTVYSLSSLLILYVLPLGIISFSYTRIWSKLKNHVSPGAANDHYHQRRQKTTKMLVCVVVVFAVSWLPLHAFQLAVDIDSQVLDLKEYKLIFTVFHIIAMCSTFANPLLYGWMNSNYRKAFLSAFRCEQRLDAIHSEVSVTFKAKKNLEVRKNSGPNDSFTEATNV
Protocol: The assay was performed using the fluorimetric imaging plate reader (FLIPR) format as described in Dautzenberg, F. M., Biochemical Pharmacology 2005, 69, 1493.
KAN-Ts cells stably expressing chimeric G proteins were seeded at a density of 100,000 cells into poly-d-lysine coated 384-well blackwall, clear-bottom microtiter plates (Corning, N.Y.). One day later, the medium was removed and 50 μl loading medium DMEM high glucose, without serum, supplemented with 10 mM HEPES-acid, 0.1% BSA, 5 mM probenecid and 2 μM Fluo-3AM was added. Cells were loaded for 1 h at 37° C., washed twice with 50 μl assay buffer (5 mM HEPES-acid, 140 mM NaCl, 1 mM MgCl2, 5 mM KCl, 10 mM glucose) and then 30 μl assay buffer was added. Cells were further pre-incubated at room temperature before adding agonists or agonists plus antagonists in 20 μl assay buffer and then measured on a T-channel fluorometric imaging plate reader (FLIPR, Molecular Devices, Sunnyvale, Calif.). Antagonistic potency values were converted to apparent pKB values using a modified Cheng-Prusoff correction. Apparent pKB was calculated as pKB=−log IC50/1+[conc agonist/EC50].

[2] = target: T1, NPY Y2 receptor; test: Neuropeptide Y2 radioligand binding assay ([125I]PYY, KAN-Ts membranes); design: endogenous in cells; host or cells: KAN-Ts cells (membrane preparation); conditions: for IC50: KAN-Ts membranes endogenously expressing Y2, [125I]PYY (80 pM), 1 h at rt
Summary of the method: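 Membranes from KAN-Ts cells with endogenous Y2 receptors, incubated with 80 pM [125I]PYY ± compound for 1 h at rt in HEPES/NaCl/CaCl2/MgSO4 buffer, then filtered and counted. Nonspecific binding defined with […]. IC50 from sigmoidal fit; Ki = IC50/(1+C/KD).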

| Kb [1] [nM] | IC50 [2] [nM] | Ki ([2]; apparent Ki=IC50/(1+C/KD)) [nM] | Compound |
| --- | --- | --- | --- |
| 316 | – | 36 | CCC(CC)C(=O)Nc1ccc(N2CCN(C(c3ccccc3)c3ccccc3C)CC2)c(C#N)c1 (centres unmarked) [Compound 305, N-{3-Cyano-4-[4-(phenyl-o-tolyl-methyl)-piperazin-1-yl]-phenyl}-2-ethyl-butyramide] |
| 20 | 18 | – | CCC(CC)C(=O)Nc1ccc(N2CCN(C(c3ccccc3)c3ccccn3)CC2)c(F)c1 (centres unmarked) [Compound 33, 2-Ethyl-N-{3-fluoro-4-[4-(phenyl-pyridin-2-yl-methyl)-piperazin-1-yl]-phenyl}-butyramide] |
| 70.8 | 58 | – | CCC(CC)C(=O)Nc1ccc(N2CCN(C(c3ccccc3)c3nc4ccccc4s3)CC2)c(F)c1 (centres unmarked) [Compound 168, N-{4-[4-(Benzothiazol-2-yl-phenyl-methyl)-piperazin-1-yl]-3-fluoro-phenyl}-2-ethyl-butyramide] |
| 63.1 | 28 | – | CCC(CC)C(=O)Nc1ccc(N2CCN(C(c3ccccc3)c3nccs3)CC2)c(F)c1 (centres unmarked) [Compound 39, 2-Ethyl-N-{3-fluoro-4-[4-(phenyl-thiazol-2-yl-methyl)-piperazin-1-yl]-phenyl}-butyramide] |
| 100 | 43 | – | CCC(CC)C(=O)Nc1ccc(N2CCN(C(c3ccccc3)c3nnc(C(C)C)o3)CC2)c(F)c1 (centres unmarked) [Compound 160, 2-Ethyl-N-(3-fluoro-4-{4-[(5-isopropyl-[1,3,4]-oxadiazol-2-yl)-phenyl-methyl]-piperazin-1-yl}-phenyl)-butyramide] |
| 158 | 240 | – | CC[C@@H](C)C(=O)Nc1ccc(N2CCN(C(c3ccccc3)c3ncco3)CC2)c(F)c1 (stereo in doubt) [Compound 91, N-{3-Fluoro-4-[4-(oxazol-2-yl-phenyl-methyl)-piperazin-1-yl]-phenyl}-2-methyl-butyramide] |

| Compound | Kb [1] [nM] | IC50 [2] [nM] | Ki ([2]; apparent Ki=IC50/(1+C/KD)) [nM] |
| --- | --- | --- | --- |
| CCC(CC)C(=O)Nc1ccc(N2CCN(C(c3ccccc3)c3nc(C)no3)CC2)c(F)c1 (centres unmarked) [Compound 2, 2-Ethyl-N-(3-fluoro-4-{4-[(3-methyl-[1,2,4]-oxadiazol-5-yl)-phenyl-methyl]-piperazin-1-yl}phenyl)-butyramide] | 39.8 | 27 | – |
